Molecular target: GTPase KRas (Homo sapiens, UniProt P01116, G12D)
Assay: Displacement of Cy5-labelled tracer from biotinylated GDP-loaded human recombinant KRAS G12D mutant (1 to 169 residues) measured after 60 mins by TR-FRET assay

Oc1cc(-c2ncc3c(N4CC5CCC(C4)N5)nc(OCC45CCCN4C(CF)CC5)nc3c2F)c2ccccc2c1 (stereo unspecified)
IC50: 0.1 nM
